Source: patent US5783574A, “Imidazolylakyl derivatives of imidazo [5,1-c][1,4]benzoxazin-1-one process for their preparation” (Pharmacia & Upjohn S.p.A., priority 1994, dated 1998)
Where a name gives a salt, the structure may show the parent alone.

Tests used:
[1] = target: T1, 5-HT3 binding sites in rat brain cortical membranes (Rattus norvegicus, UniProt P35563); assay: inhibition of 3H-BRL 43694 (Granisetron) binding in rat entorhinal cortex membranes; details: read-out: 5-HT3 binding affinity, 3H-BRL 43694 IC50
T1 construct: from tissue; host or cells: rat entorhinal cortex membranes
T1 sequence (P35563 24-483): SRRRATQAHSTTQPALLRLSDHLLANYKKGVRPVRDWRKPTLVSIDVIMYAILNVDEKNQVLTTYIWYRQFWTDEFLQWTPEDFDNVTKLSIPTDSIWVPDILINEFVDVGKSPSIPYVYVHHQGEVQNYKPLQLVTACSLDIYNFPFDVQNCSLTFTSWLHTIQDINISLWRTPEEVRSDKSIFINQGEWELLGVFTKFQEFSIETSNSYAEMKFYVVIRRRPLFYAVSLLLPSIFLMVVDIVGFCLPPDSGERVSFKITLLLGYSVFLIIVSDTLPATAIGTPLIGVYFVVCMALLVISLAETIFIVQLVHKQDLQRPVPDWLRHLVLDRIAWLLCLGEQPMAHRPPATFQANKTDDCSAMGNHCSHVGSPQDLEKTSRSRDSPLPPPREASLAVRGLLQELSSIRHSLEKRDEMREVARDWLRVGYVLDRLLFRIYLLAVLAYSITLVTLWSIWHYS
Text: [^3 H]-BRL 43694 (Granisetron) is a specific ligand for 5-HT3 binding sites in rat brain cortical membranes: Biochem. Pharmac. 38, 1693-1695, 1989.
The following Table II summarizes the activity data obtained in this in-vitro test for two representative compounds of the invention in comparison with compound A, i.e. a close chemically related compound falling within U.S. Pat. No. 4,134,974.
5-HT3 binding affinity for rat entorhinal

5HT3 receptor = target: T2, 5HT3 receptor (Rattus norvegicus, UniProt P35563); assay: inhibition of the von Bezold-Jarisch reflex (chemoreflex) evoked by 5-HT in the anesthetised rat; assay type: in vivo; details: anesthetized rat, 5-HT 30 μg/kg i.v.; for % inhibition of the von Bezold-Jarisch reflex elicited by 5-HT: compound 100 μg/kg i.v., N=6, mean; for ED50: iv, limits printed on the line below
T2 construct: evoked by 5-HT in the anesthetised rat; from tissue; host or cells: whole anaesthetised rat (by own knowledge: cardiopulmonary vagal afferents)
T2 sequence (P35563 24-483): T1 sequence (P35563 24-483)
Method: Pharmacol. 326, 36-44 (1984).
Inhibition of the von Bezold-Jarisch reflex
elicited by 5-HT (30 μg/kg i.v.) by FCE
compounds in the anesthetized rat. Values are
mean ± in S.E.M. from N animals

IC50 [1] [nM] | % inhibition of the von Bezold-Jarisch reflex elicited by 5-HT (5HT3 receptor) [%] | ED50 (5HT3 receptor) [mg/kg] | SMILES
1210 |  |  | Cc1nccn1CCN1CC2COc3ccccc3N2C1=O (stereo not shown) [Compound A, 2,3,3a,4tetrahydro-2-[2(2-methyl-imidazol-1-yl)ethyl1H-imidazo[5,1c][1,4]enzoxazin1-one hydrochloride, reference compound]
76 | 82 | 0.0236 | Cc1[nH]cnc1CN1CC2COc3ccccc3N2C1=O (stereo not shown) [FCE 28158, 2,3,3a,4-tetrahydro-2-(5-methyl-1H-imidazol-4-yl)methyl-1H-imidazo[5,1-c][1,4]benzoxazin-1-one]
6 | 97.5 | 0.00818 | Cc1[nH]cnc1CN1CC2COc3ccc(Cl)cc3N2C1=O (stereo not shown) [FCE 28609, 2,3,3a,4-tetrahydro-8-chloro-2-(5-methyl-1H-imidazol-4-yl)methyl-1H-imidazo[5,1-c][1,4]benzoxazin-1-one]
